From patent publication US10920265B2, “Compounds and methods for detection of enzymes that remove methyl succinyl groups from epsilon-amino lysine moieties” (Enzo Life Sciences, Inc., priority 2011, dated 2021)

Experiments:
[1] = test system: HeLa cells; assay: Intact HeLa cell desuccinylation/deacetylation assay; type: cell-based, human; details: 200 μM substrate in medium, four hours
Protocol: HeLa cells were cultured to 95% confluence in the wells of ½-volume 96-well plates. […] After the indicated time, cells were lysed with detergent and trypsin added to release AMC from desuccinylated or deacetylated substrate and then fluorescence read (Ex.360 nm/Em. 460 nm). For “0 hr.” samples, substrate, inhibitors, lysis buffer and trypsin were added simultaneously. Bars represent the mean of three determinations and the error bars the Standard Deviation from that mean. Statistically significant differences between the fluorescences of “4 hr.” and “0 hr.” samples (Student's t-test) are indicated by asterisks as follows: *,p<0.02; **, p<0.002.
An assay employing Ac-Lys(Ac.)-AMC to measure the HDAC and sirtuin deacetylase activity of intact cultured cells has been described (Howitz, K. T. et al. Nature 425, 191-196 (2003); Product Manual of Enzo Life Sciences Cat. # BML-AK-503, “HDAC Fluorimetric Cellular Activity Assay Kit”, Appendix F). Ac-Lys(Ac)-AMC is added to the culture medium, enters the cells and is deacetylated by HDACs and sirtuins in their native intracellular context. Measurement of the amount of Ac-Lys-AMC produced by intracellular deacetylation is then accomplished by detergent lysis of the cells and release of the AMC fluorophore by trypsin. We therefore investigated whether Ac-Lys(Succ.)-AMC could be used to measure intracellular desuccinylation activity, in a similar fashion, with cultured HeLa cells. […] These latter, deacetylation results are consistent with previous observations made with this assay system (see Howitz, K. T. et al. Nature 425, 191-196 (2003) and Appendix F).
Assays (FIG. 10) were performed according to the manufacturer's instructions for the ““HDAC Fluorometric Cellular Activity Assay Kit” (ELS Cat. # BML-AK503), with exceptions described as follows. Where indicated the “Fluor de Lys Substrate” (Ac-Lys(Ac.)-AMC; ELS Cat. # BML-KI104) was replaced with Ac-Lys(Succ.)-AMC (1).

[2] = biological target: T1, HDAC6 (Homo sapiens, UniProt Q9UBN7); assay: HDAC activity with fluorogenic lysyl substrates; type: biochemical; details: 50 μM substrate
T1 construct: purchased ENZO Life Sciences BML-SE508
T1 sequence (Q9UBN7 whole entry): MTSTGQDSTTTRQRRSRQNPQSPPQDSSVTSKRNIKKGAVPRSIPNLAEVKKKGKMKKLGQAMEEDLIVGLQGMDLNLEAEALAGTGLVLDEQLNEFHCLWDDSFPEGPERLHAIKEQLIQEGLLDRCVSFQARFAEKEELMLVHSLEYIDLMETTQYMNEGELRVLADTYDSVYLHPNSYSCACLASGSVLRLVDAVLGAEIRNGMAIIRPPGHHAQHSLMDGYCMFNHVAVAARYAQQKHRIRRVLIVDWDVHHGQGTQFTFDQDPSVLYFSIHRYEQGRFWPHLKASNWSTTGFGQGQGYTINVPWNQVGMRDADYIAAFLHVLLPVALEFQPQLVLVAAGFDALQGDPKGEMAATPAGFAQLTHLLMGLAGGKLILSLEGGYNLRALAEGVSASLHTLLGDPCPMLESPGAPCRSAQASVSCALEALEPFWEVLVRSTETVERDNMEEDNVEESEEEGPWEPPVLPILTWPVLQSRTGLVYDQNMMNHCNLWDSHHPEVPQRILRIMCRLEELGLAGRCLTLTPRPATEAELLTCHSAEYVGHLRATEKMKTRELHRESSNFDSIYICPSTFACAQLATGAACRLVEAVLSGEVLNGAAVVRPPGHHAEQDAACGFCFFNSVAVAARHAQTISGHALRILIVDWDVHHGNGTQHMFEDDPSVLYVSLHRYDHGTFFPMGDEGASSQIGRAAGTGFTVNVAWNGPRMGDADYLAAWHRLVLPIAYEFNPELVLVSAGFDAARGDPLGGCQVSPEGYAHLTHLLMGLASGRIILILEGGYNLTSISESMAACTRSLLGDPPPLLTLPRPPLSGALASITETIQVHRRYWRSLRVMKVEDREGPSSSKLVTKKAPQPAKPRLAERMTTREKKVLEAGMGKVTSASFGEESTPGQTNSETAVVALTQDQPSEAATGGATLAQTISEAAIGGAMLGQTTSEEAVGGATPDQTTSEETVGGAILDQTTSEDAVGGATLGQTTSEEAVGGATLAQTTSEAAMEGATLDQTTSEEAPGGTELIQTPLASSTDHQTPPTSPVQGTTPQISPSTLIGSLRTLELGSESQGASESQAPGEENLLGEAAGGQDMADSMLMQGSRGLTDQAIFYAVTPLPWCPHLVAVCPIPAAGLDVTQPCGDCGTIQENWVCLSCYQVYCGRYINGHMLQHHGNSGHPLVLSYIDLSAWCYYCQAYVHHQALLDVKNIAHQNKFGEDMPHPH
How it was run: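 Kit-based fluorogenic assay at 37 °C using trypsin-developed lysyl-AMC substrates bearing acetyl, succinyl or trifluoroacetyl groups. Enzyme sources were human recombinant HDACs and SIRTs, HDAC3/NCOR1, HeLa nuclear extract, or NP-40 lysate of HeLa S3 cells in 50 mM Tris/HCl pH 8.0.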

Activity [2] [pmol/min/µg] | Activity (pmol/min/μg) [2] | Compound | Intracellular desuccinylation/deacetylation of substrate [1]
1.0 |  | CC(=O)NCCCCC(NC(C)=O)C(=O)Nc1ccc2c(C)cc(=O)oc2c1 (stereo not shown) [Ac-Lys(Ac.)-AMC, Ac-Lys(ε-acetyl)-AMC, reference compound] | significant deacetylation
 | Undetectable | CC(=O)N[C@@H](CCCCNC(=O)CCC(=O)O)C(=O)Nc1ccc2c(C)cc(=O)oc2c1 [Compound 1, N—(N^α-acetyl-L-Lysine(N^ε-succinyl))-AMC] | no significant desuccinylation
